{
  "source": "patent US20130065965A1",
  "about": "“DI(4-CHLORO-PHENYLDIGUANIDO) DERIVATIVE WHICH IS FREE OF POTENTIAL GENOTOXICITY AND A PROCESS FOR REDUCING THE RESIDUAL AMOUNT OF P-CHLOROANILINE IN SAID DI(4-CHLORO-PHENYLDIGUANIDO) DERIVATIVE” (MEDICHEM S.A., priority 2009, published 2013)",
  "key": {"[1]": {"format": "physicochemical", "settings": "for p-chloroaniline (ppm, HPLC method 1): methanol:acetic acid 8:1 (v/v), 40° C.; for p-chloroaniline (ppm, HPLC method 1), Average: methanol:acetic acid 8:1, 40° C.", "method": "HPLCs were acquired on a Waters Alliance 2695 LC system. Column: Kromasil C18, 5 μm, 4.6×250 mm. Flow rate: 1 mL/min. Detector: UV, 254 nm. Mobile phase A: (33:9.5:57.5; v/v/v) 1-octanesulfonic acid sodium salt solution/glacial acetic acid/methanol. The 1-octanesulfonic acid sodium salt solution was prepared dissolving 1.6 g of 1-octanesulfonic acid sodium salt in 330 ml of water and adding 95 ml of glacial acetic acid and 575 ml of methanol. Mobile phase B: methanol. Gradient: 100% A (0-20 min)-85% A (40-65 min)-100% A (70-80 min). Temperature: 30° C. Sample: 10 mg/mL in mobile phase A. Injection volume: 10 μL.\nLimit of detection (LOD): 3 ppm of p-chloroaniline.\nTwo 100 mg aliquots of a sample of chlorhexidine free of potential genotoxicity (Replicates A and B), having a content of p-chloroaniline below 40-50 ppm, a content of each of compounds of Markush formula (IV) (i.e. impurities B-G) below 0.15%, and a total impurities content below 1.5%, as measured by HPLC method 1, were dissolved in 1 mL of a mixture of methanol and acetic acid 8:1 (v/v), and each solution was stored in 5 different closed glass vials at 40° C. These vials were opened after 1, 2, 4, 14, and 25 days of storage, respectively, and the content of p-chloroaniline was measured (HPLC method 1). A linear regression line was calculated from the data obtained in Table 1 (y=2170x-356, R^2=0.991, where “y” represents the measured content of p-chloro aniline in ppm units and “x” represents the degradation time in day units; See FIG. 1).\nThree 100 mg aliquots of a sample of chlorhexidine (Replicates C, D and E), having a content of p-chloroaniline of less than 40-50 ppm, a content of each of compounds of Markush formula (IV) (i.e. impurities B-G) higher than 0.15%, and a total impurities content below 2.5-3.0%, as measured by HPLC method 1, were dissolved in 1 mL of a mixture of methanol and acetic acid 8:1 (v/v), and each solution was stored in 2 different closed glass vials at 40° C. These vials were opened after 12 and 19 days of storage, respectively, and the content of p-chloroaniline was measured (HPLC method 1)."}, "[2]": {"assay": "Stability study of aqueous solutions of chlorhexidine digluconate (p-chloroaniline by colorimetric method, European Pharmacopoeia 6.0)", "format": "physicochemical", "settings": "20% aqueous solution; for p-chloroaniline (ppm, Colorimetry), 3 months: closed vial, protected from light", "method": "In the U.S. Pharmacopoeia (First Supplement to the USP 33-NF 28 Reissue, USP Monographs: Chlorhexidine Gluconate Solution) it is described that the digluconate salt of chlorhexidine in aqueous solution should be preserved in tight containers, protected from light, and at controlled room temperature (i.e. about 25° C.). In this regard, the present inventors have observed that a 20% (w/v) aqueous solution of the chlorhexidine digluconate of the invention which is free of potential genotoxicity (i.e. having a content of p-chloroaniline lower than 40-50 ppm, with respect to the chlorhexidine base) can become moderately potentially genotoxic (i.e. showing a content of p-chloroaniline dramatically close to higher than 40-50 ppm) after 3 months of storage at 25° C., and highly potentially genotoxic (i.e. showing a content of p-chloroaniline much higher than 40-50 ppm) after 3 months of storage at 40° C. […] Conversely, when storing the aqueous solution of chlorhexidine digluconate of the invention at 15° C., the free-genotoxic stability (i.e. a content of p-chloroaniline lower than 40-50 ppm) is kept at low values for at least 3 months (See Example 12).\nTwo samples corresponding to a 20% (v/w) aqueous solution of chlorhexidine digluconate which was prepared from the chlorhexidine of Example 10, were stored in a closed vial, under different temperature conditions (i.e. 15° C., 25° C., and 40° C.) for 3 months in a closed chamber protected from light. The potentially free genotoxicity stability of the samples (i.e. the presence of p-chloroaniline) was measured by the colorimetric method described for measuring p-chloroaniline in chlorhexidine digluconate solution in European Pharmacopoeia 6.0 (page 1501)."}, "[3]": {"settings": "1 day of storage, sample with impurities B-G below 0.15%, 0.54% total impurities"}, "[4]": {"settings": "2 days of storage, sample with impurities B-G below 0.15%, 0.54% total impurities"}, "[5]": {"settings": "4 days of storage, sample with impurities B-G below 0.15%, 0.54% total impurities"}, "[6]": {"settings": "14 days of storage, sample with impurities B-G below 0.15%, 0.54% total impurities"}, "[7]": {"settings": "25 days of storage, sample with impurities B-G below 0.15%, 0.54% total impurities"}, "[8]": {"settings": "12 days of storage, sample with impurities B-G higher than 0.15%, 2.64% total impurities"}, "[9]": {"settings": "19 days of storage, sample with impurities B-G higher than 0.15%, 2.64% total impurities"}},
  "note": "Read-outs that look alike come from different tables or passages of the source.",
  "data": [
    {"compound": "N=C(NCCCCCCNC(=N)NC(=N)Nc1ccc(Cl)cc1)NC(=N)Nc1ccc(Cl)cc1", "note": "[Replicate A]", "values": [
      {"measurement": "p-chloroaniline (ppm, HPLC method 1)", "setting": "[1]; [3]", "result": "1,556 ppm"},
      {"measurement": "p-chloroaniline (ppm, HPLC method 1)", "setting": "[1]; [4]", "result": "3,357 ppm"},
      {"measurement": "p-chloroaniline (ppm, HPLC method 1)", "setting": "[1]; [5]", "result": "6,284 ppm"},
      {"measurement": "p-chloroaniline (ppm, HPLC method 1)", "setting": "[1]; [6]", "result": "33,753 ppm"},
      {"measurement": "p-chloroaniline (ppm, HPLC method 1)", "setting": "[1]; [7]", "result": "52,561 ppm"}
    ]},
    {"compound": "[H]/N=C(\\N/C(=N/[H])NCCCCCCNC(=N)NC(=N)Nc1ccc(Cl)cc1)Nc1ccc(Cl)cc1", "note": "[chlorhexidine, 1-[amino-[6-[amino-[amino-(4-chlorophenyl)aminomethylidene]aminomethylidene]amino-hexylimino]methyl]imino-N-(4-chlorophenyl)-methanediamine]", "values": [
      {"measurement": "linear regression line, degradation rate towards p-chloroaniline", "setting": "[1]", "result": 2170, "unit": "x-356"},
      {"measurement": "p-chloroaniline (ppm, HPLC method 1), Average", "setting": "[1]; average of Replicates A and B, 1 day, 0.54% total impurities sample", "result": "1,741 ppm"},
      {"measurement": "p-chloroaniline (ppm, HPLC method 1), Average", "setting": "[1]; average of Replicates A and B, 2 days, 0.54% total impurities sample", "result": "3,483 ppm"},
      {"measurement": "p-chloroaniline (ppm, HPLC method 1), Average", "setting": "[1]; average of Replicates A and B, 4 days, 0.54% total impurities sample", "result": "7,052 ppm"},
      {"measurement": "p-chloroaniline (ppm, HPLC method 1), Average", "setting": "[1]; average of Replicates A and B, 14 days, 0.54% total impurities sample", "result": "33,664 ppm"},
      {"measurement": "p-chloroaniline (ppm, HPLC method 1), Average", "setting": "[1]; average of Replicates A and B, 25 days, 0.54% total impurities sample", "result": "52,109 ppm"},
      {"measurement": "p-chloroaniline (ppm, HPLC method 1), Average", "setting": "[1]; average of Replicates C, D and E, 12 days, 2.64% total impurities sample", "result": 33459, "unit": "ppm"},
      {"measurement": "p-chloroaniline (ppm, HPLC method 1), Average", "setting": "[1]; average of Replicates C, D and E, 19 days, 2.64% total impurities sample", "result": 46524, "unit": "ppm"}
    ]},
    {"compound": "N=C(NCCCCCCNC(=N)NC(=N)Nc1ccc(Cl)cc1)NC(=N)Nc1ccc(Cl)cc1", "note": "[Replicate E]", "values": [
      {"measurement": "p-chloroaniline (ppm, HPLC method 1)", "setting": "[1]; [8]", "result": 33568, "unit": "ppm"},
      {"measurement": "p-chloroaniline (ppm, HPLC method 1)", "setting": "[1]; [9]", "result": 47577, "unit": "ppm"}
    ]},
    {"compound": "N=C(NCCCCCCNC(=N)NC(=N)Nc1ccc(Cl)cc1)NC(=N)Nc1ccc(Cl)cc1", "note": "[Replicate B]", "values": [
      {"measurement": "p-chloroaniline (ppm, HPLC method 1)", "setting": "[1]; [3]", "result": "1,925 ppm"},
      {"measurement": "p-chloroaniline (ppm, HPLC method 1)", "setting": "[1]; [4]", "result": "3,609 ppm"},
      {"measurement": "p-chloroaniline (ppm, HPLC method 1)", "setting": "[1]; [5]", "result": "7,819 ppm"},
      {"measurement": "p-chloroaniline (ppm, HPLC method 1)", "setting": "[1]; [6]", "result": "33,575 ppm"},
      {"measurement": "p-chloroaniline (ppm, HPLC method 1)", "setting": "[1]; [7]", "result": "51,656 ppm"}
    ]},
    {"compound": "N=C(NCCCCCCNC(=N)NC(=N)Nc1ccc(Cl)cc1)NC(=N)Nc1ccc(Cl)cc1", "note": "[Replicate C]", "values": [
      {"measurement": "p-chloroaniline (ppm, HPLC method 1)", "setting": "[1]; [8]", "result": 33657, "unit": "ppm"},
      {"measurement": "p-chloroaniline (ppm, HPLC method 1)", "setting": "[1]; [9]", "result": 45243, "unit": "ppm"}
    ]},
    {"compound": "N=C(NCCCCCCNC(=N)NC(=N)Nc1ccc(Cl)cc1)NC(=N)Nc1ccc(Cl)cc1.O=C(O)[C@H](O)[C@@H](O)[C@H](O)[C@H](O)CO.O=C(O)[C@H](O)[C@@H](O)[C@H](O)[C@H](O)CO", "note": "[chlorhexidine digluconate]", "values": [
      {"measurement": "p-chloroaniline, Increasing (%)", "setting": "[2]; 3 months at 15° C.", "result": 433, "unit": "%"},
      {"measurement": "p-chloroaniline, Increasing (%)", "setting": "[2]; 3 months at 25° C.", "result": 1533, "unit": "%"},
      {"measurement": "p-chloroaniline, Increasing (%)", "setting": "[2]; 3 months at 40° C.", "result": 4233, "unit": "%"},
      {"measurement": "p-chloroaniline (ppm, Colorimetry), Initial", "setting": "[2]; sample to be stored at 15° C.", "result": 3, "unit": "ppm"},
      {"measurement": "p-chloroaniline (ppm, Colorimetry), Initial", "setting": "[2]; sample to be stored at 25° C.", "result": 3, "unit": "ppm"},
      {"measurement": "p-chloroaniline (ppm, Colorimetry), Initial", "setting": "[2]; sample to be stored at 40° C.", "result": 3, "unit": "ppm"},
      {"measurement": "p-chloroaniline (ppm, Colorimetry), 3 months", "setting": "[2]; storage at 15° C.", "result": 16, "unit": "ppm"},
      {"measurement": "p-chloroaniline (ppm, Colorimetry), 3 months", "setting": "[2]; storage at 25° C.", "result": 49, "unit": "ppm"},
      {"measurement": "p-chloroaniline (ppm, Colorimetry), 3 months", "setting": "[2]; storage at 40° C.", "result": 130, "unit": "ppm"}
    ]},
    {"compound": "N=C(NCCCCCCNC(=N)NC(=N)Nc1ccc(Cl)cc1)NC(=N)Nc1ccc(Cl)cc1", "note": "[Replicate D]", "values": [
      {"measurement": "p-chloroaniline (ppm, HPLC method 1)", "setting": "[1]; [8]", "result": 33153, "unit": "ppm"},
      {"measurement": "p-chloroaniline (ppm, HPLC method 1)", "setting": "[1]; [9]", "result": 46753, "unit": "ppm"}
    ]}
  ]
}
